Test results taken from article PMC6182140 (Nucleic Acids Research, 2018).
Where two headings read alike, the source gives them in different places.

Experiments:
DNA = conditions: cited from earlier work
Method: (§1) Thus, each dNTP insertion step is carried out by a combination of pol η alone and pol η holoenzyme. However, if ...

pol η = assay: DNA synthesis by pol η without PCNA, undamaged control template; format: biochemical, human; conditions: pol η 70 nM, p15 400 nM, no PCNA, control template 10 nM
Method: pJM879 ([33]), expressing N-terminal His-tagged human pol η, was a kind gift from R. Woodgate (NIH, USA). Human recombinant pol η was expressed and purified with a modified protocol: BL21 DE3 competent E. coli cells were transformed with pJM879. Plates containing […] kanamycin were used to identify kanamycin-resistant colonies that were picked and grown overnight at 37°C. DNA purified from bacterial cultures using NucleoSpin® Plasmid (NoLid) kit ([…]-NAGEL, Düren, Germany) was digested to confirm the presence of the gene expressing pol η. Transformed E. coli cells were used to inoculate a 50 ml starter culture. After overnight growth at 37°C, 12 ml of the starter culture were put into 1 l of LB medium (containing […] kanamycin). After 6 h growth at 37°C, cells were harvested by centrifugation and pellet frozen at –80°C. […]

pol η–PCNA holoenzyme [1] = assay: TLS by pol η on cis-Pt template in the presence of RF-C; format: biochemical, human; conditions: 50 µM dNTPs, 0.5 mM ATP, 150 nM ScRF-C, 400 nM pol η, 400 nM p15, 50 nM PCNA
Method: Recombinant ScRF-C was obtained as a kind gift from the laboratory of Alessandro Costa (Francis Crick Institute), and was prepared following the procedure described in ([34]).
(§2) All reactions were performed in a 10 μl final volume using the following conditions: 40 mM Tris pH 8, 1 mM dithiotreitol (DTT), 0.25 mg/ml bovine serum albumin (BSA), 10 mM Mg^2+ (unless otherwise stated in the figures or figure legends). Reactions were incubated at 37°C for 15 min, unless otherwise stated. Reaction mixtures were stopped by addition of standard denaturing gel loading buffer (95% formamide, […], xylene cyanol and bromophenol blue), heated at 95°C for 5 min and loaded on a 7-M urea 12% polyacrylamide (PA) gel.
18/24mer primer-template substrate bearing a cis-Pt adduct at the two guanines at positions +1
and +2 of the template strand, in the presence of RF-C and in the absence (lanes 10-13) or in the
Reactant concentrations were: 50
(1 picture or pasted object on this page, not shown here)

pol η–PCNA holoenzyme [2] = assay: TLS time course of pol η on cisPt(GG) template; format: biochemical, human; conditions: cisPt(GG) template 10 nM, pol η 40 nM; p15 with equimolar PCNA (p15), 10-fold excess PCNA (PCNA), or pol η alone; pH 8, 37°C
Method: (§3) The 24-mer template oligonucleotide containing the cis-PtGG adduct was a kind gift from S.J. Sturla (ETH, Zürich) and was prepared and purified as described previously (Nilforoushan, 2015). All other DNA oligonucleotides, all HPLC purified, were synthesized by Biomers.net (Germany). The 18mer primer oligonucleotide was 5′-labeled with carboxyfluorescin (FAM) group. The labeled primer was mixed to the complementary template oligonucleotide at 1:1 (M/M) ratio in the presence of 150 mM Hepes–KOH pH 7.4, 500 mM KCl, 10 mM MgCl2, 250 mM NH4Ac, heated at 95°C for 5 min and then slowly cooled at room temperature.
pJM879 ([33]), expressing N-terminal His-tagged human pol η, was a kind gift from R. Woodgate (NIH, USA). Human recombinant pol η was expressed and purified with a modified protocol: BL21 DE3 competent E. coli cells were transformed with pJM879. Plates containing […] kanamycin were used to identify kanamycin-resistant colonies that were picked and grown overnight at 37°C. […] Transformed E. coli cells were used to inoculate a 50 ml starter culture. After overnight growth at 37°C, 12 ml of the starter culture were put into 1 l of LB medium (containing […] kanamycin). After 6 h growth at 37°C, cells were harvested by centrifugation and pellet frozen at –80°C. […]

pol η–PCNA holoenzyme [3] = assay: DNA synthesis by pol η on undamaged template; format: biochemical, human
Method: as §3
pJM879 ([33]), expressing N-terminal His-tagged human pol η, was a kind gift from R. Woodgate (NIH, USA). Human recombinant pol η was expressed and purified with a modified protocol: BL21 DE3 competent E. coli cells were transformed with pJM879. Plates containing […] kanamycin were used to identify kanamycin-resistant colonies that were picked and grown overnight at 37°C. […] Transformed E. coli cells were used to inoculate a 50 ml starter culture. After overnight growth at 37°C, 12 ml of the starter culture were put into 1 l of LB medium (containing […] kanamycin). After 6 h growth at 37°C, cells were harvested by centrifugation and pellet frozen at –80°C. The pellet was resuspended in 40ml of lysis buffer (50mM Tris–HCl pH 7.5, 0.3 M NaCl, 20 mM imidazole, 10% glycerol, 10 mM b-mercaptoethanol [BME], 1× lysozime (Eurobio, Courtaboeuf, France), 1× ethylenediaminetetraacetic acid [EDTA]-free protease inhibitor ([…]™ Protease Inhibitor Cocktail Tablets, Sigma-Aldrich), 1 mM phenylmethane sulfonyl fluoride [PMSF] and lysed through sonication. After ultracentrifugation at 98 000g at 4°C for 1.5 h, the supernatant was loaded onto a 1-ml Ni-NTA column (HisTrap™ HP, GE Healthcare). Column washing was performed with 3 ml of W1 buffer ([…] pH 7.5, 1 M NaCl, 20 mM imidazole, 10% glycerol, 10 mM BME) followed by 3 ml of W2 buffer (10 mM Na-phosphate pH 7.7, 0.3 M NaCl, 20 mM imidazole, 10% glycerol, 10 mM BME). Elution of target protein was obtained using buffer H (10 mM Na-phosphate pH 7.7, 0.3 M NaCl, 200 mM imidazole, 10% glycerol, 10 mM BME). The pol η positive fractions (0.5 ml each) were pooled and overnight dialyzed with buffer M (20 mM Na-phosphate pH 7.3, 0.1 M NaCl, 10% glycerol, 10 mM BME), in dialysis cassette (Slide-A-Lyzer™ Dialysis Cassettes, 3.5K MWCO, Thermo Scientific). Pool was then loaded onto a 1-ml cation exchanger column (HiTrap SP, Pharmacia Biotech). Buffer N (20 mM Na-phosphate pH 7.3, 0.5 M NaCl, 10% glycerol, 10 mM BME) was used to elute pol η with a linear gradient. The pol ηpositive fractions (0.5 ml each) were aliquoted and stored at –80°C in 20% final glycerol.
as §2
Figure 4. […] Reactants at the indicated concentrations were incubated at 37°C for 30 s and the reaction was stopped by addition of standard denaturing gel loading buffer.

PCNA (Homo sapiens) [4] = molecular target: PCNA (Homo sapiens) (UniProt P12004); assay: ITC; conditions: cited from earlier work
Sequence of UniProt P12004 (P12004 whole entry): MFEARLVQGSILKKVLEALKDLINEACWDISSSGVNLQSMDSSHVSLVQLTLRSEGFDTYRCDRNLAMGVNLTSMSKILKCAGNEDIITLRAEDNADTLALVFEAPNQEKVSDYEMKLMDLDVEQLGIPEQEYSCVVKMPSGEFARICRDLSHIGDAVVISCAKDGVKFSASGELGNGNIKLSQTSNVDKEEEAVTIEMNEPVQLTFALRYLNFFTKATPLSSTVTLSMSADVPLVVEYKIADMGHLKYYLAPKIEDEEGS

PCNA (Homo sapiens) [5] = molecular target: PCNA (Homo sapiens) (UniProt P12004); assay: SPR; conditions: cited from earlier work
PCNA = conditions: read-out: Kd pol η–PCNA (SPR); surface plasmon resonance at 25°C; cited from earlier work
Method: as §1

For “p15: PCNA–associated factor, oncogenic 11 kDa intrinsically disordered protein”, the Kd (DNA; read-out: affinity of p15 for DNA) is given as 5000 nM, the “effect of p15 alone on pol η activity” value (pol η) is given as “does not affect the activity of the polymerase” and the “effect on TLS in the presence of RF-C” value (pol η–PCNA holoenzyme [1]; 40 nM cis-Pt 18/24mer) is given as “delays TLS by pol η–PCNA across a cis-Pt lesion even in the presence of RF-C”. For the same molecule, the “accumulated products in the presence of RF-C” value (pol η–PCNA holoenzyme [1]; p15 in combination with PCNA) was “accumulation of +1 and +2 products”, the “effect on lesion bypass / nucleotide incorporation” value (pol η–PCNA holoenzyme [2]) was “reduced nucleotide incorporation at +2 and +3 positions” and the “effect on nucleotide incorporation at initial time point” value (pol η–PCNA holoenzyme [3]; undamaged template 10 nM, with PCNA and p15 equimolar, lane 2, 37°C, pH 8) was “reduced nucleotide incorporation at position +2”. For the same molecule, the “effect on synthesis of full-length product” value (pol η–PCNA holoenzyme [3]; undamaged template 10 nM, with PCNA and p15 equimolar, lanes 3–5, 37°C, pH 8) was “slowed down the synthesis of the full-length product”, the “comparison of pol η inhibition by p15 and p15^41–72 in conjunction with PCNA” value (pol η–PCNA holoenzyme [3]; undamaged template, 37°C for 30 s) was “able to reduce pol η synthesis at comparable levels” and the “effect on DNA synthesis in combination with PCNA” value (pol η–PCNA holoenzyme [3]; undamaged template, 37°C for 30 s, with respect to pol η and PCNA alone, synthesis stopped at +1 and +2) was “reduction of DNA synthesis”.

In the case of p15PAF (from UniProt Q15004), the Kd (PCNA (Homo sapiens) [4]) is given as 1100 nM.

For pol η (from UniProt Q9Y253), the Kd (PCNA (Homo sapiens) [5]) is listed as 400 nM.

B1: pol η: human recombinant translesion synthesis polymerase η, N-terminal His-tagged (protein, UniProt Q9Y253 1-713, looked up)
DNA polymerase eta: MATGQDRVVALVDMDCFFVQVEQRQNPHLRNKPCAVVQYKSWKGGGIIAVSYEARAFGVTRSMWADDAKKLCPDLLLAQVRESRGKANLTKYREASVEVMEIMSRFAVIERASIDEAYVDLTSAVQERLQKLQGQPISADLLPSTYIEGLPQGPTTAEETVQKEGMRKQGLFQWLDSLQIDNLTSPDLQLTVGAVIVEEMRAAIERETGFQCSAGISHNKVLAKLACGLNKPNRQTLVSHGSVPQLFSQMPIRKIRSLGGKLGASVIEILGIEYMGELTQFTESQLQSHFGEKNGSWLYAMCRGIEHDPVKPRQLPKTIGCSKNFPGKTALATREQVQWWLLQLAQELEERLTKDRNDNDRVATQLVVSIRVQGDKRLSSLRRCCALTRYDAHKMSHDAFTVIKNCNTSGIQTEWSPPLTMLFLCATKFSASAPSSSTDITSFLSSDPSSLPKVPVTSSEAKTQGSGPAVTATKKATTSLESFFQKAAERQKVKEASLSSLTAPTQAPMSNSPSKPSLPFQTSQSTGTEPFFKQKSLLLKQKQLNNSSVSSPQQNPWSNCKALPNSLPTEYPGCVPVCEGVSKLEESSKATPAEMDLAHNSQSMHASSASKSVLEVTQKATPNPSLLAAEDQVPCEKCGSLVPVWDMPEHMDYHFALELQKSFLQPHSSNPQVVSAVSHQGKRNPKSPLACTNKRPRPEGMQTLESFFKPLTH
modifications: N-terminal His tag
notes: human recombinant translesion synthesis polymerase η, N-terminal His-tagged
In the case of B1, the Kd (PCNA) is listed as 400 nM, the Kd (DNA; read-out: affinity of pol η for DNA) is listed as 30 nM and the “effect on lesion bypass / nucleotide incorporation” value (pol η–PCNA holoenzyme [2]) is listed as “able to complete the bypass”. For the same molecule, the processivity (pol η–PCNA holoenzyme [3]; undamaged template 10 nM, pol η alone or with PCNA, 37°C, pH 8) was “equal processivity”.
